According to patent US20120207753A1, “METHODS OF USING CD44 FUSION PROTEINS TO TREAT CANCER” (CENTRE HOSPITALIER UNIVERSITAIRE VAUDOIS, priority 2009, published 2012):

Assays:
U251 cells = experiment: Intracranial tumor growth and survival, transduced U251 cells in Rag-1 mice; assay type: in vivo, human; settings: single dose BCNU 10 mg/kg iv or TMZ 5 mg/kg ip
Experimental: (§1) FIG. 12. Antagonists of CD44 are effective therapeutic agents against human GBM in mouse models. A, U87MG and U251 cells were transduced with the retroviruses carrying empty vector and the expression constructs of hsCD44s-Fc, hsCD44v8-v10-Fc, and hsCD44v3-v10 and their serum free cell culture supernatants were collected and analyzed on Western blots using anti-CD44 antibody (Santa Cruz) or anti-human IgG antibody. The molecular weight bars correspond to 199 kDa and 116 kDa. B, 2×10^6 of the transduced U87MG and U251 cells were injected subcutaneously per mouse. Growth rates of the subcutaneous tumors were determined and expressed as the mean of tumor volume (mm^3)+/−SD. Six mice were used for each construct. C, Survival rates of mice following the intracranial injections of transduced U87MG (C-a) and U251 (C-b-c) cells infected with the retroviruses carrying the empty expression vectors, hsCD44s-Fc, hsCD44v8-v10-Fc, hsCD44v3-v10, hsCD44sR41A-Fc, or hsCD44v3-v10R41A-Fc constructs as indicated in the panels. […]
(§2) Mice were used in accordance with the approved IACUC Protocol. […] Following injection, mice were closely monitored and the duration of their survival was recorded. […] Number of surviving mice was recorded. The survival rates were calculated as follows: survival rate (%)=(number of mice still alive/total number of experimental mice)×100%. […]

U87MG cells = experiment: Intracranial tumor growth and survival, transduced U87MG cells in Rag-1 mice; assay type: in vivo, human; settings: single dose BCNU 10 mg/kg iv or TMZ 5 mg/kg ip
Experimental: as §1, §2

## O=NN(CCCl)C(=O)NCCCl [BCNU, carmustine]
U251 cells; intracranial U251-Luc depleted of CD44
  inhibition of intracranial glioma formation (median survival), drug combined with CD44 knockdown: synergistic inhibition of intracranial glioma formation
U251 cells; intracranial U251-Luc
  inhibitory effect on glioma growth as single agent: weak
U87MG cells; intracranial U87MG-Luc depleted of CD44
  inhibition of intracranial glioma formation (median survival), drug combined with CD44 knockdown: synergistic inhibition of intracranial glioma formation
U87MG cells; intracranial U87MG-Luc
  inhibitory effect on glioma growth as single agent: weak
